Measured values taken from the supplement of paper PMC10307832.

compound: CN1CCC(CC1)OC2=CC(=C(C=C2)NC3=NC=C4C(=N3)N(C(=O)N4C)C5CCCC5)OC [AZ3146] + CS(=O)(=O)CCNCc1ccc(-c2ccc3ncnc(Nc4ccc(OCc5cccc(F)c5)c(Cl)c4)c3c2)o1 [Lapatinib] (partner 2 µM); assay: relative viability (nuclei count vs DMSO), 5 days (fraction); higher = more cells survive; conditions: first compound 0.8 µM
Summary of the method: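 Lung cancer cell lines were seeded in 1536-well plates and dosed by pin tool the next day, with either a single drug or a fixed anchor-drug dose combined with five library-drug doses (not always all listed) spaced in √10 steps. Five days later, one step fixed the cells and stained their nuclei (final 0.05% Triton X-100, 1% formaldehyde, 1 ug/ml Hoechst), and nuclei were counted on 4× images. Relative viability is the nuclei count in treated wells divided by the count in vehicle wells, and each value is the median of duplicate plates.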

In order of rising relative viability:
1. HCC-827  0.175
2. CAL-12T  0.588
3. NCI-H2085  0.7
4. NCI-H520  0.838
5. NCI-H1792  0.868
6. HCC-15  0.896
7. LC-2-ad  0.907
8. A549  0.924
9. NCI-H838  0.935
10. NCI-H460  0.937
11. HOP-62  0.941
12. NCI-H3122  0.952
13. A-427  0.957
14. NCI-H1299  0.985
15. LU99A  1.06
16. NCI-H596  1.21

same assay, conditions: first compound 2.53 µM

In order of rising relative viability:
1. EBC-1  0.201
2. HCC-827  0.237
3. NCI-H358  0.384
4. NCI-H322M  0.608
5. CAL-12T  0.771
6. NCI-H460  0.817
7. NCI-H2126  0.818
8. HARA  0.822
9. NCI-H2085  0.823
10. NCI-H1944  0.837
11. HOP-62  0.846
12. HCC-15  0.857
13. NCI-H838  0.858
14. A549  0.872
15. LXF-289  0.907
16. LC-2-ad  0.914
17. COR-L23  0.923
18. NCI-H1792  0.936
19. EPLC-272H  0.951
20. LU99A  0.954
21. NCI-H1299  0.958
22. NCI-H520  0.965
23. A-427  0.969
24. Calu-6  1
25. NCI-H3122  1
26. HCC-44  1.01
27. LK-2  1.01
28. NCI-H650  1.02
29. NCI-H596  1.08
30. NCI-H1734  1.1
31. NCI-H2228  1.23
32. NCI-H23  1.31

same assay, conditions: first compound 8 µM

In order of falling relative viability:
1. HOP-62  1.06
2. A-427  1.01
3. LU99A  0.995
4. NCI-H1944  0.987
5. NCI-H650  0.973
6. HCC-44  0.971
7. NCI-H1792  0.954
8. NCI-H1734  0.942
9. NCI-H23  0.915
10. LXF-289  0.908
11. COR-L23  0.899
12. NCI-H2228  0.889
13. EPLC-272H  0.877
14. LK-2  0.841
15. HCC-15  0.832
16. NCI-H1299  0.787
17. NCI-H2126  0.729
18. NCI-H2085  0.699
19. HARA  0.693
20. NCI-H460  0.656
21. LC-2-ad  0.631
22. NCI-H322M  0.584
23. NCI-H520  0.576
24. CAL-12T  0.56
25. NCI-H358  0.435
26. Calu-6  0.397
27. NCI-H838  0.32
28. EBC-1  0.208
29. HCC-827  0.191
30. A549  0.109
